According to patent US12391679B2, “Benzamide-substituted bicyclic imidazo- and pyrazolo-fused -pyridine, -pyrimide, and -pyridazine compounds for treatment of inflammatory diseases” (ONCO3R Therapeutics BV, priority 2019, dated 2025):

Key:
Format in all cases: biochemical
SIK3 [1] = biological target: T1, SIK3 (Homo sapiens, UniProt Q9Y2K2); test: 33P radioactive kinase assay, SIK3; settings: 33P radioactive assay; AMARA 7 μM; 15 μM ATP; 80 min; average IC50
T1 construct: purchased SignalChem S12-11G-100
Procedure: (§1) The principle of the ^33P radioactive kinase assay consists in measuring the incorporated ^33P into the substrate AMARA peptide when phosphorylated by SIK1, SIK2 or SIK3 using [^33P]-g-ATP, which correlates with kinase activity.
(§2) The test compounds are prepared as a serial dilution of 10 point dose responses with 1/5 dilution steps in 100% DMSO starting from 2 mM highest concentration, diluted 1/20 in water and 5 μL is transferred to the assay plates (Greiner, Cat #651201).
(§3) 1% DMSO and 10 μM staurosporine final concentrations are used as negative and positive controls.
(§4) 11 μL of enzyme-substrate mixture is added on the assay plates. The reactions are started by adding 9 μL ATP mixture, consisting of non-labeled and ^33P-labeled ATP, on the assay plates.
(§5) The reactions are stopped by adding 25 μL phosphoric acid (150 mM) to the reactions.
(§6) The completely terminated kinase reactions are transferred using a harvester on pre-wetted UniFilter-96 plates (UniFilter-96 GF/B, PerkinElmer Inc., Cat #6005177).
(§7) After harvesting the kinase reactions, the filter plates are washed 6 times with phosphoric acid (75 mM). The back of the UniFilter-96 plates are sealed and 40 μL MicroScint-20 (PerkinElmer Inc., Cat #6013621) is added to each well. The top of the plates are sealed with TopSeal-A. Read-out is performed with a TopCount instrument (PerkinElmer Inc.).
(§8) Raw data are generated following the read-out performed on the TopCount, plotted to generate dose response curves to calculate percentage inhibition (PIN) and average IC50 for each SIK homologue which are reported in the table below.

SIK1 [2] = biological target: T2, SIK1 (Homo sapiens, UniProt P57059); test: 33P radioactive kinase assay, SIK1
T2 construct: purchased Carna Biosciences 02-131
Procedure: as §1, §2, §3, §4, §5, §6, §7, §8

SIK2 [3] = biological target: T3, SIK2 (Homo sapiens, UniProt Q9H0K1); test: 33P radioactive kinase assay, SIK2; note: AMARA 5 µM, 10 µM ATP
T3 construct: purchased ThermoFisher Scientific PV4792
Procedure: as §1, §2, §3, §4, §5, §6, §7, §8

SIK2 [4] = biological target: T3, SIK2; test: ADP-Glo kinase assay, SIK2
In short: (§9)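 Kinase reactions ran 120 min at room temperature after ATP addition to enzyme-substrate mix. Remaining ATP was depleted (40 min) and ADP converted to ATP for luciferase detection (30 min), signal rising with activity. Final 1% DMSO and 10 μM staurosporine served as negative and positive controls.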

SIK1 [5] = biological target: T2, SIK1; test: ADP-Glo kinase assay, SIK1
In short: as §9

SIK3 [6] = biological target: T1, SIK3; test: ADP-Glo kinase assay, SIK3
In short: as §9

T3 sequence (Q9H0K1 whole entry): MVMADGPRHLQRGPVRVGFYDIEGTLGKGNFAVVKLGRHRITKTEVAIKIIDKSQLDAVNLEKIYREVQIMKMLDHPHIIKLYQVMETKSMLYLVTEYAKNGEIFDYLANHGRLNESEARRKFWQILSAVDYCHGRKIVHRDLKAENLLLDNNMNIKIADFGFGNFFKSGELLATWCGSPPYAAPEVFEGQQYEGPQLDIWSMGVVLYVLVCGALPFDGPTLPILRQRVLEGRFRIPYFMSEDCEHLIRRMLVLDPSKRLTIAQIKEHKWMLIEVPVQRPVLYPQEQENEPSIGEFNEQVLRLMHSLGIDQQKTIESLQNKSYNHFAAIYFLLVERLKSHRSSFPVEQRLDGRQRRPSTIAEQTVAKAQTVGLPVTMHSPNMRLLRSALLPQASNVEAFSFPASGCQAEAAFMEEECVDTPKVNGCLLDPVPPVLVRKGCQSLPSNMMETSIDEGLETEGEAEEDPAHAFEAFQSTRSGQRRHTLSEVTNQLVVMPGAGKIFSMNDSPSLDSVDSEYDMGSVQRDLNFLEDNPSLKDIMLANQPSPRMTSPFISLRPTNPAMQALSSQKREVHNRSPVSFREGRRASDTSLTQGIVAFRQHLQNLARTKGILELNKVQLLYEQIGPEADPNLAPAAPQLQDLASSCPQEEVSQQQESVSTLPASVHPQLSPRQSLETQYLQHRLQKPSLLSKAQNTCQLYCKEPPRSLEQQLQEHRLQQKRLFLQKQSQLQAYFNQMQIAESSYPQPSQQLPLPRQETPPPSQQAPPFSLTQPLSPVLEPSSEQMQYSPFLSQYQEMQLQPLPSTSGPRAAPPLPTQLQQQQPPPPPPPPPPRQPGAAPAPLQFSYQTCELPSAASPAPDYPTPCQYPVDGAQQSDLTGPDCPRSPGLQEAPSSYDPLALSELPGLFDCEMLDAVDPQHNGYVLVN
T1 sequence (Q9Y2K2 59-365 limits assumed): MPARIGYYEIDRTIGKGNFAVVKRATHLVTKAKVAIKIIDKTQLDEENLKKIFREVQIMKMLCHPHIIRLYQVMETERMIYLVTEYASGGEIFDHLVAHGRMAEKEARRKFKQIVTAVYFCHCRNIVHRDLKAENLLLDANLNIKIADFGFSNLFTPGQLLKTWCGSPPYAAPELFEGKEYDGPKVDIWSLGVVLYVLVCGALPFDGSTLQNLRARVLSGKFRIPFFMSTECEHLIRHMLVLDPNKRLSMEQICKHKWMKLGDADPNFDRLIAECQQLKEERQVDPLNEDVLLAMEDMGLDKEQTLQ
T2 sequence (P57059 whole entry): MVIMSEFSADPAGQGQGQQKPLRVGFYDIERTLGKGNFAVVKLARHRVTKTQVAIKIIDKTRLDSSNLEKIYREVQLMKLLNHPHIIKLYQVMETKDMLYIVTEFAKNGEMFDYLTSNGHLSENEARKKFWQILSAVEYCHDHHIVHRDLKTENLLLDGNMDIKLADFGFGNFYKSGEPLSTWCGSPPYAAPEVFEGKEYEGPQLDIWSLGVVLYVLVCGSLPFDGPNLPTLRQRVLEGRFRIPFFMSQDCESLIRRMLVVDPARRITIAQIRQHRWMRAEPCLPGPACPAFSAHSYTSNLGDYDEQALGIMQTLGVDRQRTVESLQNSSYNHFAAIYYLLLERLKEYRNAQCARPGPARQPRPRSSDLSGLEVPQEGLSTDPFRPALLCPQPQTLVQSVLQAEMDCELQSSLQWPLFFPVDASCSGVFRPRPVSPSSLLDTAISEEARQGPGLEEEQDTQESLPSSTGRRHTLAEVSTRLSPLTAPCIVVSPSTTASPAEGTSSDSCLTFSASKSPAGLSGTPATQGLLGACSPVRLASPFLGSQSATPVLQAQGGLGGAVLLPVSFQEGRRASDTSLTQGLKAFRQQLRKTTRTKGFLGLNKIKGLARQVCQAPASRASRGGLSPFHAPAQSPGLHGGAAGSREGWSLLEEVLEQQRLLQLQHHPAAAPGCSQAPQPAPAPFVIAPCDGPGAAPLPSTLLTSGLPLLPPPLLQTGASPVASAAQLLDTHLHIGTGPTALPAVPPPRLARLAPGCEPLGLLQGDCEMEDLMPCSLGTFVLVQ

Row | IC50 (SIK3 [1]) | IC50 (SIK1 [2]) | IC50 (SIK2 [3]) | IC50 (SIK2 [4]) | IC50 (SIK1 [5]) | IC50 (SIK3 [6]) | Compound
1 | 10 to 100 nM | > 500 nM | 100 to 500 nM | 100 to 500 nM | > 500 nM | 10 to 100 nM | COc1cc(-c2cnc3cc(C4CCN(C)CC4)ccn23)cc(OC)c1C(=O)NCC(F)(F)F [Cpd 22, 2,6-dimethoxy-4-[7-(1-methyl-4-piperidyl)imidazo[1,2-a]pyridin-3-yl]-N-(2,2,2-trifluoroethyl)benzamide]
2 | 10 to 100 nM | > 500 nM | 100 to 500 nM | 100 to 500 nM | > 500 nM | 10 to 100 nM | COc1cc(-c2cnc3cc(C4CCCNC4)ccn23)cc(OC)c1C(=O)NCC(F)(F)F (stereo not drawn) [Cpd 23, 2,6-dimethoxy-4-[7-(3-piperidyl)imidazo[1,2-a]pyridin-3-yl]-N-(2,2,2-trifluoroethyl)benzamide]
3 | 10 to 100 nM | > 500 nM | > 500 nM |  |  |  | COc1cc(-c2cnc3cc(C(C)(C)C(N)=O)ccn23)cc(OC)c1C(=O)NC1CC1 [Cpd 29, 4-[7-(2-amino-1,1-dimethyl-2-oxo-ethyl)imidazo[1,2-a]pyridin-3-yl]-N-cyclopropyl-2,6-dimethoxy-benzamide]
4 | 100 to 500 nM | > 500 nM | > 500 nM | > 500 nM | > 500 nM | 10 to 100 nM | CCNC(=O)c1c(OC)cc(-c2cnc3cc(C(C)(C)C#N)ccn23)cc1OC [Cpd 30, 4-[7-(1-cyano-1-methyl-ethyl)imidazo[1,2-a]pyridin-3-yl]-N-ethyl-2,6-dimethoxy-benzamide]
5 | 100 to 500 nM | > 500 nM | > 500 nM |  |  |  | CCNC(=O)c1c(OC)cc(-c2cnc3cc(C(C)(C)C(N)=O)ccn23)cc1OC [Cpd 31, 4-[7-(2-amino-1,1-dimethyl-2-oxo-ethyl)imidazo[1,2-a]pyridin-3-yl]-N-ethyl-2,6-dimethoxy-benzamide]
6 | 10 to 100 nM | > 500 nM | > 500 nM | > 500 nM | > 500 nM | 10 to 100 nM | COc1cc(-c2cnc3cc(C(C)(C)C#N)ccn23)cc(OC)c1C(=O)NCC#N [Cpd 32, N-(cyanomethyl)-4-[7-(1-cyano-1-methyl-ethyl)imidazo[1,2-a]pyridin-3-yl]-2,6-dimethoxy-benzamide]

Further lines, the compound ahead of its results:

Row | Compound | IC50 (SIK3 [1]) | IC50 (SIK1 [2]) | IC50 (SIK2 [3]) | IC50 (SIK2 [4]) | IC50 (SIK1 [5]) | IC50 (SIK3 [6])
7 | COc1cc(-n2cnc3cc(C4CCN(CC#N)CC4)ccc32)cc(OC)c1C(=O)NCC(F)(F)F [Cpd 4, 4-[5-[1-(cyanomethyl)-4-piperidyl]benzimidazol-1-yl]-2,6-dimethoxy-N-(2,2,2-trifluoroethyl)benzamide] | 100 to 500 nM | > 500 nM | > 500 nM |  |  | 
8 | COc1cc(-n2cnc3cc(C4CCOCC4)ccc32)cc(OC)c1C(=O)NCC(F)(F)F [Cpd 5, 2,6-dimethoxy-4-(5-tetrahydropyran-4-ylbenzimidazol-1-yl)-N-(2,2,2-trifluoroethyl)benzamide] | 100 to 500 nM | > 500 nM | > 500 nM |  |  | 
9 | COc1cc(-n2cnc3cc(C4CCCN(C)C4)ccc32)cc(OC)c1C(=O)NCC(F)(F)F (stereo not drawn) [Cpd 6, 2,6-dimethoxy-4-[5-(1-methyl-3-piperidyl)benzimidazol-1-yl]-N-(2,2,2-trifluoroethyl)benzamide] | 100 to 500 nM | > 500 nM | > 500 nM |  |  | 
10 | COc1cc(-n2cnc3cc(C4CCCN(C(=O)OC(C)(C)C)C4)ccc32)cc(OC)c1C(=O)NCC(F)(F)F (stereo not drawn) [Cpd 7, tert-butyl 3-[1-[3,5-dimethoxy-4-(2,2,2-trifluoroethylcarbamoyl)phenyl]benzimidazol-5-yl]piperidine-1-carboxylate] | > 500 nM | > 500 nM | > 500 nM |  |  | 
11 | COc1cc(-n2cnc3cc(C4CCCNC4)ccc32)cc(OC)c1C(=O)NCC(F)(F)F (stereo not drawn) [Cpd 8, 2,6-dimethoxy-4-[5-(3-piperidyl)benzimidazol-1-yl]-N-(2,2,2-trifluoroethyl)benzamide] | 100 to 500 nM | > 500 nM | > 500 nM |  |  | 
12 | COc1cc(-n2cnc3cc(C4CCCN(CC#N)C4)ccc32)cc(OC)c1C(=O)NCC(F)(F)F (stereo not drawn) [Cpd 9, 4-[5-[1-(cyanomethyl)-3-piperidyl]benzimidazol-1-yl]-2,6-dimethoxy-N-(2,2,2-trifluoroethyl)benzamide] | 100 to 500 nM | > 500 nM | > 500 nM |  |  | 
13 | COc1cc(-n2cnc3cc(C(C)(C)C#N)ccc32)cc(OC)c1C(=O)NCC(F)(F)F [Cpd 10, 4-[5-(1-cyano-1-methyl-ethyl)benzimidazol-1-yl]-2,6-dimethoxy-N-(2,2,2-trifluoroethyl)benzamide] | 100 to 500 nM | > 500 nM | > 500 nM | > 500 nM | > 500 nM | 100 to 500 nM
14 | COc1cc(-n2cnc3cc(C(C)(C)C#N)ccc32)cc(OC)c1C(=O)NC1CC1 [Cpd 11, 4-[5-(1-cyano-1-methyl-ethyl)benzimidazol-1-yl]-N-cyclopropyl-2,6-dimethoxy-benzamide] | > 500 nM | > 500 nM | > 500 nM | > 500 nM | > 500 nM | 100 to 500 nM
15 | COc1cc(-n2cnc3cc(C(C)(C)C#N)ccc32)cc(OC(F)F)c1C(=O)NC1CC1 [Cpd 12, 4-[5-(1-cyano-1-methyl-ethyl)benzimidazol-1-yl]-N-cyclopropyl-2-(difluoromethoxy)-6-methoxy-benzamide] | 100 to 500 nM | > 500 nM | > 500 nM |  |  | 
16 | COc1cc(-n2cnc3cc(C4(C#N)CCC4)ccc32)cc(OC)c1C(=O)NCC(F)(F)F [Cpd 13, 4-[5-(1-cyanocyclobutyl)benzimidazol-1-yl]-2,6-dimethoxy-N-(2,2,2-trifluoroethyl)benzamide] | > 500 nM | > 500 nM | > 500 nM |  |  | 
17 | COc1cc(-n2cnc3cc(C4(C#N)CCC4)ccc32)cc(OC)c1C(=O)NC1CC1 [Cpd 14, 4-[5-(1-cyanocyclobutyl)benzimidazol-1-yl]-N-cyclopropyl-2,6-dimethoxy-benzamide] | > 500 nM | > 500 nM | > 500 nM |  |  | 
18 | COc1cc(-n2cnc3cc(C(C)C#N)ccc32)cc(OC)c1C(=O)NCC(F)(F)F (stereo not drawn) [Cpd 15, 4-[5-(1-cyanoethyl)benzimidazol-1-yl]-2,6-dimethoxy-N-(2,2,2-trifluoroethyl)benzamide] | > 500 nM | > 500 nM | > 500 nM |  |  | 
19 | COc1cc(-c2cnc3cc(C(C)(C)C#N)ccn23)cc(OC)c1C(=O)N1CC(F)(F)C1 [Cpd 18, 2-[3-[4-(3,3-difluoroazetidine-1-carbonyl)-3,5-dimethoxy-phenyl]imidazo[1,2-a]pyridin-7-yl]-2-methyl-propanenitrile] | 10 to 100 nM | > 500 nM | > 500 nM | > 500 nM | > 500 nM | 10 to 100 nM
20 | COc1cc(-c2cnc3cc(C4CCCN(C(=O)OC(C)(C)C)C4)ccn23)cc(OC)c1C(=O)NCC(F)(F)F (stereo not drawn) [Cpd 21, tert-butyl 3-[3-[3,5-dimethoxy-4-(2,2,2-trifluoroethylcarbamoyl)phenyl]imidazo[1,2-a]pyridin-7-yl]piperidine-1-carboxylate] | 10 to 100 nM | > 500 nM | 100 to 500 nM |  |  | 
